Results on 85 compounds are retold here after the Kinase Knowledgebase extract (Sharma et al. 2016).

pIC50: −log10 of the molar value.

For the assay, the target named is EGFR (UniProt P00533).
EGFR, sequence (P00533 whole entry, looked up): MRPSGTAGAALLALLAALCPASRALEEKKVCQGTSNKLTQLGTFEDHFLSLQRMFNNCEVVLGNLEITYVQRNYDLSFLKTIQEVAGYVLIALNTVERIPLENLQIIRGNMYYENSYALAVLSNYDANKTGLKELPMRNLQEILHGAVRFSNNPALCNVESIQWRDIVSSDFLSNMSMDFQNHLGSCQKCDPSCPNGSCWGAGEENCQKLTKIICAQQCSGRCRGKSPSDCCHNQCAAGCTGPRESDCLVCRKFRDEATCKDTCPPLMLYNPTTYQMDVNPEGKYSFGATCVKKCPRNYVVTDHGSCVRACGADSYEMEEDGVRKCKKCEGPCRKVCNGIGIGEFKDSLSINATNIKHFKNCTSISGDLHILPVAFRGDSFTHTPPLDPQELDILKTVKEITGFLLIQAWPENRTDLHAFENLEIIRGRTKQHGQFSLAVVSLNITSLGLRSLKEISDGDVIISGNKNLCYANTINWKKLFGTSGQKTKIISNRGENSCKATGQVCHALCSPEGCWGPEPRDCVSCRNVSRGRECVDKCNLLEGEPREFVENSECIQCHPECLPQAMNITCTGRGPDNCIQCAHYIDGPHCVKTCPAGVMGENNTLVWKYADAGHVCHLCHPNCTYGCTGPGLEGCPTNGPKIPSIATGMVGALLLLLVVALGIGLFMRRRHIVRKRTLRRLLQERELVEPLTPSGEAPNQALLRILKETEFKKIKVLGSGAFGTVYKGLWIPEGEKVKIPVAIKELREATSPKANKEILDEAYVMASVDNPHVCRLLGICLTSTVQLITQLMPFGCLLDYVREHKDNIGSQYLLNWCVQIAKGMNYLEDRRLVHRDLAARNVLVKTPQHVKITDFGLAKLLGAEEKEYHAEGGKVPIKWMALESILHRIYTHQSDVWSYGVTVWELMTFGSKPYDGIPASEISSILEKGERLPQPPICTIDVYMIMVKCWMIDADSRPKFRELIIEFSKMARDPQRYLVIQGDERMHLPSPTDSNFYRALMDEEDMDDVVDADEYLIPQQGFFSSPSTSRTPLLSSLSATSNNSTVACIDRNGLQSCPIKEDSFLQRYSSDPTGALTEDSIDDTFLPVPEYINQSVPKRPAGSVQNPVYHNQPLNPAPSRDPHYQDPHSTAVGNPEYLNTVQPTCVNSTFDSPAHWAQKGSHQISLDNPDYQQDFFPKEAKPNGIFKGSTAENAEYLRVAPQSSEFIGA

`COC(=O)c1cn2ncnc(Nc3ccc(C)c(OC)c3)c2c1C`: the pIC50 – broadly, the IC50 on a negative log10 scale, so that one unit is a factor of ten – was 4.60 to 8.52.

The compound `CCCc1c(C(=O)NCCCN2CCCC2)cn2ncnc(Nc3ccc(C)c(O)c3)c12` showed a pIC50 of 4.60 to 8.52.

Take `COC(=O)c1cn2ncnc(Nc3ccc(Br)c(C)c3)c2c1C`: the pIC50 was 4.60 to 8.52.

The compound `Cc1c(OCCCn2nccn2)cn2ncnc(Nc3cccc(Br)c3)c12` gave a pIC50 of 4.60 to 8.52.

`COc1cn2ncnc(Nc3ccc(C)c(O)c3)c2c1OC` showed a pIC50 of 4.60 to 8.52.

Compound `CCc1c(C(=O)O)cn2ncnc(Nc3ccc(OC)nc3)c12` gave a pIC50 of 4.60 to 8.52.

The compound `COC(=O)c1cn2ncnc(Nc3ccc(C)c(F)c3)c2c1C` showed a pIC50 of 4.60 to 8.52.

Take `CCOC(=O)c1cn2ncnc(N[C@H]3CC[C@H](O)CC3)c2c1CC`: the negative-log IC50 (pIC50) is 4.60 to 8.52.

Compound `COC(=O)CCc1cn2ncnc(C3C(=O)Nc4ccccc43)c2c1C` (stereo not given) gave a pIC50 of 4.60 to 8.52.

`COC(=O)c1cn2ncnc(Nc3cccc(NS(C)(=O)=O)c3)c2c1C` showed a negative logarithm of the IC50 (pIC50) of 4.60 to 8.52.

In the case of `COC(=O)c1cn2ncnc(C3C(=O)Nc4ccc(S(N)(=O)=O)cc43)c2c1C` (stereo not given), the pIC50 was 4.60 to 8.52.

`COC(=O)c1cn2ncnc(C3C(=O)Nc4ccc(C#N)cc43)c2c1C` (stereo not given): the negative logarithm of the IC50 (pIC50) was 4.60 to 8.52.

`CCOC(=O)c1cn2ncnc(Nc3cccc4c3cnn4Cc3ccccc3)c2c1CC`: the pIC50 is 4.60 to 8.52.

For the compound `Cc1ccc2c(Nc3ccc(Br)cc3F)ncnn12`, the negative-log IC50 (pIC50) is 4.60 to 8.52.

For the compound `CCOC(=O)c1cn2ncnc(N[C@@H](C)c3ccccc3)c2c1CC`, the pIC50 was 4.60 to 8.52.

On to `COc1c(OCc2ccccc2)cn2ncnc(C3C(=O)Nc4ccccc43)c12` (stereo not given), for which the negative-log IC50 (pIC50) is 4.60 to 8.52.

For the compound `Cc1c(C(=O)CCN2CCN(C)CC2)cn2ncnc(C3C(=O)Nc4ccccc43)c12` (stereo not given), the pIC50 is 4.60 to 8.52.

With `COC(=O)c1cn2ncnc(-c3c(O)[nH]c4cc(F)ccc34)c2c1C`, the negative-log IC50 (pIC50) was 4.60 to 8.52.

In the case of `COC(=O)c1cn2ncnc(Nc3ccc(OC)nc3)c2c1C`, the pIC50 was 4.60 to 8.52.

For the compound `COC(=O)c1cn2ncnc(Nc3nc4ccccc4s3)c2c1C`, the negative-log IC50 (pIC50) was 4.60 to 8.52.

In turn, `CCOC(=O)c1cn2ncnc(NCc3ccc(Br)cc3)c2c1CC` had a pIC50 of 4.60 to 8.52.

In turn, `Cc1c(C(=O)NCCCCN2CCOCC2)cn2ncnc(C3C(=O)Nc4ccccc43)c12` (stereo not given) had a pIC50 of 4.60 to 8.52.

`COC(=O)c1cn2ncnc(Nc3cccc(CO)c3)c2c1C`: the pIC50 is 4.60 to 8.52.

In the case of `COc1cn2ncnc(C3C(=O)Nc4ccccc43)c2c1C` (stereo not given), the negative logarithm of the IC50 (pIC50) was 4.60 to 8.52.

`COC(=O)c1cn2ncnc(Nc3cccc(S(=O)(=O)O)c3)c2c1C` gave a pIC50 of 4.60 to 8.52.

In turn, `Cc1ccc(Nc2ncnn3cc(C(=O)O)c(C)c23)cc1O` gave a negative logarithm of the IC50 (pIC50) of 4.60 to 8.52.

In turn, `Cc1c(OCCn2cncn2)cn2ncnc(C3C(=O)Nc4ccccc43)c12` (stereo not given) had a pIC50 of 4.60 to 8.52.

`CCCCNS(=O)(=O)c1cccc(Nc2ncnn3cc(C(=O)OC)c(C)c23)c1`: the negative logarithm of the IC50 (pIC50) is 4.60 to 8.52.

The compound `CCOC(=O)c1cn2ncnc(N3CCOCC3)c2c1CC` gave a pIC50 of 4.60 to 8.52.

`Cc1c(NC(=O)NCCCCN2CCOCC2)cn2ncnc(C3C(=O)Nc4ccccc43)c12` (stereo not given): the pIC50 is 4.60 to 8.52.

For the compound `CCOC(=O)c1cn2ncnc(Nc3ccc(C)c(O)c3)c2c1C(=O)OCC`, the negative-log IC50 (pIC50) was 4.60 to 8.52.

`Cc1nc(C2C(=O)Nc3ccccc32)c2c(C)c(C(N)=O)cn2n1` (stereo not given) showed a negative-log IC50 (pIC50) of 4.60 to 8.52.

Compound `Cc1ccc(Nc2nc(N(C)C)nn3cccc23)cc1O` had a pIC50 of 4.60 to 8.52.

`COC(=O)c1cn2ncnc(Nc3cccc(C#N)c3)c2c1C`: the pIC50 was 4.60 to 8.52.

Turning to `COC(=O)c1cc2c(C3C(=O)Nc4ccccc43)ncnn2c1` (stereo not given), the negative-log IC50 (pIC50) was 4.60 to 8.52.

For the compound `COC(=O)c1cn2ncnc(Nc3ccc(C)c(S(N)(=O)=O)c3)c2c1C`, the pIC50 is 4.60 to 8.52.

`Cc1cc2c(Nc3ccc(C)c(O)c3)ncnn2c1`: the pIC50 is 4.60 to 8.52.

Turning to `CCOC(=O)c1cn2ncnc(NCc3ccccc3Br)c2c1CC`, the pIC50 is 4.60 to 8.52.

The compound `CCCCNc1ncnn2cc(C(=O)OCC)c(CC)c12` gave a negative-log IC50 (pIC50) of 4.60 to 8.52.

`CCOC(=O)c1cn2ncnc(C3C(=O)Nc4ccccc43)c2c1CC` (stereo not given) gave a negative logarithm of the IC50 (pIC50) of 4.60 to 8.52.

`COC(=O)c1cn2ncnc(-n3[nH]c(=O)c4ccccc43)c2c1C` gave a pIC50 of 4.60 to 8.52.

As for `COC(=O)c1cn2ncnc(C3C(=O)Nc4ccccc43)c2c1C` (stereo not given), the pIC50 was 4.60 to 8.52.

For the compound `COC(=O)c1cn2ncnc(Nc3ccc(C)cn3)c2c1C`, the pIC50 was 4.60 to 8.52.

With `CC(=O)N1CCc2ccc(Nc3ncnn4cccc34)cc21`, the pIC50 is 4.60 to 8.52.

With `COC(=O)c1cn2ncnc(Nc3cccc4cnccc34)c2c1C`, the pIC50 was 4.60 to 8.52.

In turn, `CCc1c(C(=O)OCc2ccccc2)cn2ncnc(Nc3ccc(F)c(Cl)c3)c12` had a negative-log IC50 (pIC50) of 4.60 to 8.52.

Compound `Cc1c(NC(=O)NCCN2CCOCC2)cn2ncnc(C3C(=O)Nc4ccccc43)c12` (stereo not given) gave a pIC50 of 4.60 to 8.52.

As for `Cc1c(C(=O)OCc2ccccc2)cn2ncnc(C3C(=O)Nc4ccccc43)c12` (stereo not given), the negative logarithm of the IC50 (pIC50) was 4.60 to 8.52.

For `CCOC(=O)c1cn2ncnc(Nc3ccccc3)c2c1CC`, the pIC50 was 4.60 to 8.52.

In the case of `COC(=O)c1cn2ncnc(Nc3ccc4c(C)cc(=O)[nH]c4c3)c2c1C`, the pIC50 is 4.60 to 8.52.

Compound `Cc1nc(Nc2ccc(C)c(O)c2)c2c(C)c(C(N)=O)cn2n1` gave a negative logarithm of the IC50 (pIC50) of 4.60 to 8.52.

In turn, `COC(=O)c1cn2ncnc(Nc3ccc(NC(C)=O)nc3)c2c1C` had a pIC50 of 4.60 to 8.52.

Compound `Cc1c(C(=O)NCCCn2ccnc2C)cn2ncnc(C3C(=O)Nc4ccccc43)c12` (stereo not given) showed a negative logarithm of the IC50 (pIC50) of 4.60 to 8.52.

`CCCc1ccc(Nc2ncnn3cc(C(=O)OC)c(C)c23)cc1O` gave a pIC50 of 4.60 to 8.52.

Regarding `CCC(C)NC(=O)c1cn2ncnc(C3C(=O)Nc4ccccc43)c2c1C` (stereo not given), the negative logarithm of the IC50 (pIC50) was 4.60 to 8.52.

For the compound `CCOC(=O)c1cn2ncnc(NCC3CCC(C#N)CC3)c2c1CC` (stereo not given), the pIC50 was 4.60 to 8.52.

Compound `COC(=O)c1cn2ncnc(Cl)c2c1C` had a negative logarithm of the IC50 (pIC50) of 4.60 to 8.52.

With `COC(=O)c1cn2ncnc(C3C(=O)Nc4ccc(S(=O)(=O)N(C)C)cc43)c2c1C` (stereo not given), the negative-log IC50 (pIC50) is 4.60 to 8.52.

As for `CCOC(=O)c1cn2ncnc(NCCc3ccccn3)c2c1CC`, the pIC50 was 4.60 to 8.52.

For `CCOC(=O)c1cn2ncnc(Cl)c2c1CC`, the pIC50 was 4.60 to 8.52.

Consider `Cc1ccc(Nc2ncnn3cc(C(=O)N4CCN(C)CC4)c(C)c23)cc1O`, for which the negative logarithm of the IC50 (pIC50) is 4.60 to 8.52.

In turn, `CCc1c(C(=O)OC)cn2ncnc(Nc3ccc(OC)nc3)c12` showed a pIC50 of 4.60 to 8.52.

As for `COC(=O)c1cn2ncnc(C3C(=O)Nc4ncccc43)c2c1C` (stereo not given), the pIC50 is 4.60 to 8.52.

As to `Cc1c(C(=O)CCN2CCOCC2)cn2ncnc(C3C(=O)Nc4ccccc43)c12` (stereo not given), the pIC50 is 4.60 to 8.52.

For `CCc1c(C)c2c(Nc3ccc(C)c(O)c3)ncnn2c1C`, the negative-log IC50 (pIC50) was 4.60 to 8.52.

Turning to `CCc1c(C(=O)NCCN2CCCC2)cn2nc(C)nc(Nc3ccc(OC)nc3)c12`, the pIC50 was 4.60 to 8.52.

Take `CCc1nc(C2C(=O)Nc3ccccc32)c2c(C)c(C(=O)NCCCN(C)C)cn2n1` (stereo not given): the negative logarithm of the IC50 (pIC50) was 4.60 to 8.52.

`CCOC(=O)c1cn2ncnc(Nc3ccc(C)c(NS(C)(=O)=O)c3)c2c1CC` showed a negative logarithm of the IC50 (pIC50) of 4.60 to 8.52.

Take `Fc1cc(Cl)ccc1Nc1ncnn2cccc12`: the pIC50 was 4.60 to 8.52.

With `COC(=O)c1cn2ncnc(Nc3cccc(O)c3C)c2c1C`, the negative logarithm of the IC50 (pIC50) is 4.60 to 8.52.

`CCOC(=O)c1cn2ncnc(Nc3cccc(Br)c3)c2c1CC` had a pIC50 of 4.60 to 8.52.

With `COC(=O)c1cn2ncnc(Nc3ccc(O)c(C(=O)O)c3)c2c1C`, the pIC50 was 4.60 to 8.52.

Turning to `CCOC(=O)c1cn2ncnc(Nc3ccc(OC)nc3)c2c1C`, the negative logarithm of the IC50 (pIC50) is 4.60 to 8.52.

`CCc1c(C(=O)NCCN2CCOCC2)cn2ncnc(Nc3ccc4c(cnn4Cc4ccccc4)c3)c12` had a pIC50 of 4.60 to 8.52.

For the compound `COc1c(C(=O)NCCN2CCCC2)cn2ncnc(Nc3ccc(Br)cc3F)c12`, the negative logarithm of the IC50 (pIC50) was 4.60 to 8.52.

As for `CCOC(=O)c1cn2ncnc(Nc3ccc4c(cnn4Cc4ccccc4)c3)c2c1CC`, the pIC50 was 4.60 to 8.52.

As to `Cc1c(C(=O)O)cn2ncnc(C3C(=O)Nc4ccccc43)c12` (stereo not given), the negative-log IC50 (pIC50) is 4.60 to 8.52.

In the case of `Cc1ccc(Nc2ncnn3cc(N)c(C)c23)cc1O`, the negative-log IC50 (pIC50) is 4.60 to 8.52.

`Cc1ccc(Nc2ncnn3cc(C(=O)NCCN4CCCC4)c(C)c23)cc1O` had a pIC50 of 4.60 to 8.52.

As for `COC(=O)c1cn2ncnc(Nc3ccc(Cl)c([N+](=O)[O-])c3)c2c1C`, the pIC50 was 4.60 to 8.52.

In turn, `CCc1c(C(=O)NCCN2CCOCC2)c(Br)n2ncnc(Nc3ccc4c(cnn4Cc4ccccc4)c3)c12` showed a negative logarithm of the IC50 (pIC50) of 4.60 to 8.52.

`COC(=O)c1cn2ncnc(Nc3cccc(C(=O)O)c3)c2c1C` had a negative logarithm of the IC50 (pIC50) of 4.60 to 8.52.

Consider `COC(=O)c1cn2ncnc(Nc3ccc4c(c3)NCC4)c2c1C`, for which the pIC50 is 4.60 to 8.52.

`Cc1c(C(=O)NCCCN2CCOCC2)cn2ncnc(Nc3ccc(Br)c(O)c3)c12` showed a pIC50 of 4.60 to 8.52.

As to `Cc1c(N)cn2ncnc(C3C(=O)Nc4ccccc43)c12` (stereo not given), the pIC50 is 4.60 to 8.52.
